# Patent publication US12478081B2, “Application of aspartic acid derivative in preparing animal feed additive” (ANIPHA TECHNOLOGIES PTY LTD, priority 2018, dated 2025)
# Marks after values point to notes of the source that are not given here.
# Experiments:
# grass carps = experiment: Use of aspartic acid derivatives in feeds for fish (grass carp breeding test); type: in vivo; settings: for effect on weight gain of grass carps (in words): 3000 ppm, compared with the control group; for Average final weight (g) / FCR / Weight gain (%): grass carps, 3000 ppm in feed, 8 weeks
# Procedure: Test fish: The test fishes used were healthy and lively grass carp fingerlings with uniform size, which were fed in large cages for 4 weeks before being used for formal breeding test. The experimental system was a small floating cage (specification: 1.1×1.1×1.1 m^3), each small floating cage being equipped with an aeration head, providing aeration 24 h a day. Both the small floating cage and the temporary cage were placed in a 3500 m^2 pond of the test field, the depth of the pond was about 1.5 m, and the water of the pond was fully aerated in the bottom of the pond. 560 grass carps that were hungry for 1 day were randomly divided into 7 groups, with 4 replications per group and 20 grass carps per replication. By taking each replication as a unit, all of the grass carps were weighed, and then placed in 28 cages and fed with test feeds containing different test samples at the same content level.
# Test feeds: The feeds for the test were self-prepared based on the formulations in Table 6, and different test samples were added at the same content level for different test groups according to Table 7, respectively.
# The feed raw materials used were ground by ultrafine grinding and fed into a puffing machine produced by Jiangsu Muyang Group Co., Ltd. to make 3 mm floating puffed feed, where the mold clearing temperature was 130° C., 3% soybean oil was sprayed using an oil spraying equipment, and the obtained feed was sealed and stored in a cool place for later use.
# Test management: The test adopted controlled artificial feeding, and the feeding amount was adjusted once a week. The feeding levels for all the groups (based on the initial fish weight) were exactly the same, and the grass carps were fed twice a day (7:30 and 15:00). The total feeding amount was 580 g/replication test group. The test period was 8 weeks. During the test, the water quality was regularly monitored. The water temperature during the whole breeding process was 26.88±3.08° C., DO>5.0 mg O L^−1, pH 7.8, ammonia nitrogen<0.50 mg N L^−1, nitrite nitrogen<0.05 mg N L^−1.
# Parameter statistics: During the test, after the provisioning of feeds has been stopped for 1 day, fishes in each cage were weighed as a whole, and the weight gain (WG, %) and the feed conversion ratio (FCR) were calculated. Calculation formulas are as follows:
# [formula] [formula] (3) Test Results
# broilers = experiment: Breeding test: production performance of broilers; type: in vivo, yellow-feathered broilers; settings: for effect on the average daily gain of the test broilers (in words): 300 ppm, compared with the control group; for ADFI (g/d*each broiler) / ADG (g/d*each broiler) / FCR: broilers, 300 ppm in basal daily ration, 20 days
# From the text: The test adopted a single-factor random design. 420 1-day-old yellow-feathered broilers with similar body weights and having an average weight of 50 g were selected and randomly divided into 7 treatment groups, with 3 replications per group and 20 yellow-feathered broilers (half of male and female) per replication. The poultry houses and utensils were sterilized before the test. During the test period, the Jingbai laying hens were cage cultured in the same laying henhouse under the same feeding and management conditions. The basal daily ration was mainly corn-soybean meal, and no other antioxidant ingredients or growth promoters were added additionally during the entire feeding process. The test groups include a control group and test groups I-VII. The basal daily ration was fed for the control group I only, and 300 ppm of different aspartic acid derivatives were added into the basal daily ration for the test groups II-VII, as shown in Table 5. The test period was 20 days. The test yellow-feathered broilers were free to drink water and eat feed, and were fed twice a day. Taking each repetition as a unit, the test broilers were weighed at the age of 21 days (where provisioning of feeds was stopped for 12 hours, but provisioning of water was not stopped), the feed consumption of the test broilers were calculated, and the average daily feed intake (ADFI, g/d*each broiler), the average daily gain (ADG, g/d*each broiler) and the feed conversion ratio (FCR) were calculated for the test broilers of each group. Calculation formulas are as follows: […]
# The test data was statistically analyzed using SPSS18 software. First, a one-way analysis of variance (ANOVA) was performed on the data. If the difference between treatments is significant, Duncan's method was used for multiple comparisons, and the significance level was 0.05.
Compound,effect on weight gain of grass carps (in words) (grass carps),Average final weight (g) (grass carps),FCR (grass carps),Weight gain (%) (grass carps),effect on the average daily gain of the test broilers (in words) (broilers),ADFI (g/d*each broiler) (broilers),ADG (g/d*each broiler) (broilers),FCR (broilers)
"CCOC(=O)CC(NC(N)=O)C(=O)OCC (racemic) [Compound 2, diethyl N-carbamoyl-DL-aspartate]",significant improvement effect,772.0 ± 6.3^b g,1.650 ± 0.008^b,83.74 ± 1.53^b %,the most significant,40.05 ± 0.81^d g/d*each broiler,16.81 ± 0.68^b g/d*each broiler,2.39 ± 0.05^b
"NCCCCCCCCCC(=O)NC(CC(=O)O)C(=O)O (racemic) [Compound 10, N-(10-aminodecanoyl)-DL-aspartic acid]",,781.0 ± 5.1^b g,1.653 ± 0.009^b,81.58 ± 0.96%,,34.82 ± 0.64^a g/d*each broiler,14.40 ± 0.15^b g/d*each broiler,2.42 ± 0.04^b
"NCCCCCCCCCCCCCC(=O)NC(CC(=O)O)C(=O)O (racemic) [Compound 11, N-(14-aminomyristoyl)-DL-aspartic acid]",,769.2 ± 4.5^ab g,1.671 ± 0.008^b,82.32 ± 1.24%,,36.70 ± 0.54^ac g/d*each broiler,15.02 ± 0.13^b g/d*each broiler,2.44 ± 0.04^b
"NC(=O)NC(CC(=O)O)C(=O)O (racemic) [Compound 1, N-carbamoyl-DL-aspartic acid]",,774.5 ± 4.8^b g,1.650 ± 0.011^b,83.19 ± 1.41^b %,the most significant,38.83 ± 0.53 g/d*each broiler,16.59 ± 0.14^b g/d*each broiler,2.34 ± 0.03^b
"NCCCC(=O)NC(CC(=O)O)C(=O)O (racemic) [Compound 9, N-(4-aminobutyryl)-DL-aspartic acid]",,781.8 ± 4.4^b g,1.662 ± 0.008^b,80.76 ± 1.52%,,37.92 ± 0.53^c g/d*each broiler,15.84 ± 0.10^b g/d*each broiler,2.39 ± 0.04^b
"NCC(=O)NC(CC(=O)O)C(=O)O (racemic) [Compound 8, N-glycyl-DL-aspartic acid]",significant improvement effect,778.2 ± 4.3^b g,1.671 ± 0.008^b,80.62 ± 1.46%,,36.05 ± 0.83^b g/d*each broiler,14.48 ± 0.24^b g/d*each broiler,2.49 ± 0.03^ab
